Measurements reported in patent US20080220497A1, “Modulation of protein functionalities” (priority 2003, published 2008).

How the values were obtained:
[1] = target: T1, c-Abl kinase (Homo sapiens, UniProt P00519); test: Fluorescence affinity assay for Abl kinase (PD 166326 fluoroprobe); type: binding; details: read-out: EC50 for accelerating the binding of fluoroprobe PD 166326; c-Abl kinase; early time-point binding
T1 construct: other: c-Abl kinase
Method: (§1) Tris buffer: 90 mM Tris-HCl buffer, pH 7.5, containing 0.2% octyl-glucoside • 4. […] Polarstar Optima plate reader (BMG) or equivalent
(§2) B. Procedure: • 1. Make Solution A containing 80 nM Abl in the Tris buffer • 2. Serially dilute test compounds in Solution A (50 uL per well) • 3. Incubate the plate at room temp for 0.5 h • 4.
(§3) Abl kinase was preincubated with test compounds for […] in the absence of fluoroprobe. […] By comparison of RFU (relative fluorescence units) values with that of a control (in the absence of small molecule modulators), the percentage of modulation at each concentration of the small molecules was calculated.

[2] = tested on: c-Abl kinase; test: as above; type: binding, human; details: 100 nM PD 166326, 40 nM Abl kinase
Method: as §1, §2, §3

[3] = target: T2, V599E Braf kinase (Homo sapiens, UniProt P15056, V600E); test: Thermal denaturation of oncogenic V599E Braf kinase; type: binding; details: 1.4 μM V599E Braf kinase, 20 μM small molecule; read-out: ΔTm (° C.) relative to unphosphorylated B-Raf(V599E)
T2 construct: 6×His-tag (N); made in house; host or cells: Sf9 insect cells (baculovirus)
Method: (§4) Denaturation was monitored by measuring the absolute absorbance of the solutions at an appropriate wavelength (typically 230 nm and 240 nm) as a function of temperature. As the protein became denatured, additional UV absorbing functional groups became exposed causing an increase in absorbance at the melting temperature. […] The thermal data were collected using Agilent spectrophotometers and ChemStation UV/Vis Thermal Denaturation software.
(§5) The final solution was transferred to a 50 μL cuvette for analysis.
as §5
(§6) A first derivative calculation with data smoothing was applied to the resulting data to report the point of inflection as the melting temperature.

[4] = tested on: Abl kinase; test: Thermal denaturation of Abl kinase; type: binding, human; details: 1 μM Abl kinase, 20 μM small molecule
Method: as §4
5 μL of 40 μM Abl kinase was mixed with 195 μL of the small molecule/buffer solution. The final concentration was 1 μM Abl kinase and 20 μM small molecule. The final protein and buffer solution was mixed gently using a pipetter to minimize denaturing due to over aggressive mixing. The final solution was transferred to a 50 μL cuvette for analysis.
Test solutions containing only the Abl kinase were prepared as follows: 5 μL of 40 μM Abl kinase was mixed with 195 μL Buffer to give a concentration of 1 μM Abl kinase in Buffer. The protein and buffer solution was mixed gently using a pipetter to minimize denaturing due to over aggressive mixing. The final solution was transferred to a 50 μL cuvette for analysis.
as §6

[5] = target: p38-alpha kinase (Homo sapiens, UniProt Q16539); details: time-dependent if IC50 values decrease with reaction time (more than two-fold in four hours)
Method: This dilution can be done automatically on a Tecan (or similar) robotic workstation or performed manually. • 3. […] This step can be performed automatically on a Tecan (or similar) robotic workstation or performed manually. • 4. Incubate at 30° C. or room temp for 2 h, depending on protein stability. • 5. Read at emission wavelength 420 nm upon excitation at 340 nm.

[6] = target: T3, unphosphorylated p38-alpha kinase (Homo sapiens, UniProt Q16539, DEL261-261); test: Fluorescence affinity assay, unphosphorylated p38-alpha kinase; type: binding
T3 construct: 48 (6×His-TEV tag, full length); 6×His-TEV tag (N); purchased Decode Genetics, Inc; host or cells: E. coli
From the text: (§7) This fluorescence affinity assay is utilized in an affinity-based screen to identify small molecules which bind into switch control pockets of protein kinases. Binding of small molecule switch inhibitors displaces the switch control ligand phenylalanine of the DFG motif into an orientation which sterically blocks the ATP pocket. Such inhibitor-induced blockade of the ATP pocket is registered as an inhibition of binding of the fluoroprobe into the ATP pocket.
(§8) • 1. p38-alpha kinase • a. […] Polarstar Optima plate reader (BMG)
(§9) • 1. […] This dilution can be done automatically on a Tecan (or similar) robotic workstation or performed manually. • 3. Mix Solution A with the diluted compound solutions following Step 3 of Table 22. This step can be performed automatically on a Tecan (or similar) robotic workstation or performed manually. • 4. Incubate at 30° C. or room temp for 2 h, depending on protein stability. • 5. Read at emission wavelength 420 nm upon excitation at 340 nm.
The reaction was initiated by addition of the enzyme. […] By comparison of RFU (relative fluorescence units) values with that of a control (in the absence of small molecule modulators), the percentage of inhibition at each concentration of the small molecules was calculated. IC50 values for the small molecule modulators were calculated from the % inhibition values obtained at a range of concentrations of the small molecule modulators using Prism (available from GraphPad, Inc.). When time-dependent inhibition was assessed, the plate was read at multiple reaction times such as 0.5, 1, 2, 3, 4 and 6 hours. The IC50 values were calculated at each time point. An inhibition was assigned as time-dependent if the IC50 values decrease with the reaction time (more than two-fold in four hours).
(§10) A ratio greater than 1.0 indicates a preference for inhibiting the unphosphorylated form of p38-alpha kinase relative to the doubly phosphorylated form. A ratio less than 1.0 indicates a preference for inhibiting the doubly phosphorylated form of p38-alpha kinase relative to the unphosphorylated form.

[7] = target: T4, doubly phosphorylated p38-alpha kinase (Homo sapiens, UniProt Q16539); test: Fluorescence affinity assay, doubly phosphorylated p38-alpha kinase; type: binding; details: ~24 nM enzyme; 1.0 uM SKF-86002; read-out: FP IC50 P-p38-alpha
T4 construct: 6xHis ([…], seen only in the listing) (C); purchased Roche Applied Diagnostics
From the text: as §7, §8
as §9, with “nm. […]” for “nm.”
as §10

[8] = target: T3, unphosphorylated p38-alpha kinase; test: Thermal denaturation of unphosphorylated p38-alpha kinase; type: binding; details: […] p38-alpha kinase, 15 μM small molecule
From the text: as §4
The final protein and buffer solution was mixed gently using a pipetter to minimize denaturing due to over aggressive mixing. The final solution was transferred to a 50 μL cuvette for analysis.
as §5, §6

[9] = target: T4, doubly phosphorylated p38-alpha kinase; test: Thermal denaturation of doubly phosphorylated p38-alpha kinase; type: binding; details: 0.5 μM p38-alpha kinase, 20 μM small molecule
Method: as §4
The final concentration was 0.5 μM p38-alpha kinase and 20 μM small molecule. The final protein and buffer solution was mixed gently using a pipetter to minimize denaturing due to over aggressive mixing. The final solution was transferred to a 50 μL cuvette for analysis.
The protein and buffer solution was mixed gently using a pipetter to minimize denaturing due to over aggressive mixing. The final solution was transferred to a 50 μL cuvette for analysis.
as §6

[10] = target: T5, Phospho-p38-alpha kinase (Homo sapiens, UniProt Q16539); test: Spectrophotometric assay for phospho-p38-alpha kinase; details: p38-alpha kinase biochemical assay
T5 construct: 6xHis ([…], seen only in the listing) (C); purchased Roche Applied Diagnostics
T5 sequence (Q16539 with tags, fused parts or gaps): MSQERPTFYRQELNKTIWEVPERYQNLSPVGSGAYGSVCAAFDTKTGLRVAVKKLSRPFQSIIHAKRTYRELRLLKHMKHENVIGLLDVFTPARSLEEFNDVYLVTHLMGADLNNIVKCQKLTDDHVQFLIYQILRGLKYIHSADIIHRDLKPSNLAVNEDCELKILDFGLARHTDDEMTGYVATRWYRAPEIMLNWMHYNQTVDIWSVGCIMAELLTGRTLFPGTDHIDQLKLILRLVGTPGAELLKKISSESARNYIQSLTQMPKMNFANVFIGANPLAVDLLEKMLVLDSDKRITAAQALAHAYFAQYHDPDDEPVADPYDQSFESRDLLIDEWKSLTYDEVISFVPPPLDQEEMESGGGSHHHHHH
Method: Spectrophotometric Assay for Phospho-p38-alpha Kinase
NADH (Sigma): 5.6 mM • 5. Phosphoenol pyruvate (Sigma): 20 mM • 6. […] ATP (20 mM) • 8. […] Polarstar Optima plate reader (BMG)
IC50 determinations were performed using a serial dilution scheme to dilute inhibitor in DMSO, followed by further dilution in reaction buffer, and finally mixing with Mixture 1 (Table 29) which contains all the enzymes. The dilution procedure ensured that the test compound at various concentrations was properly dissolved into the buffer and enzyme reaction mixture.
Prepare Mixture 1 as described in Table 29 (use within 30 min) • 3. Mix the diluted compound with Mixture 1 following Step 3 of Table 28 • 4. Incubate the 384-well plate at 30° C. for 2 hours • 5. Add 1 μL of 30 mM ATP into each well and mix well • 6. Read on the microplate reader with one point every min for at least 2.5 hours at 30° C.
A linear regression was applied to data collected from t=1.5 hr to 2.5 hr to obtain the reaction rate for each data set. The data were approximately linear within this time frame. Percentage of inhibition was calculated by comparison of the rate in the presence of a compound with that of the control. IC50 values were calculated from a series of % inhibition values determined at a range of inhibitor concentrations using GraphPad Prism (version 4).

T1 sequence (P00519 1-1149 isoform P00519-2): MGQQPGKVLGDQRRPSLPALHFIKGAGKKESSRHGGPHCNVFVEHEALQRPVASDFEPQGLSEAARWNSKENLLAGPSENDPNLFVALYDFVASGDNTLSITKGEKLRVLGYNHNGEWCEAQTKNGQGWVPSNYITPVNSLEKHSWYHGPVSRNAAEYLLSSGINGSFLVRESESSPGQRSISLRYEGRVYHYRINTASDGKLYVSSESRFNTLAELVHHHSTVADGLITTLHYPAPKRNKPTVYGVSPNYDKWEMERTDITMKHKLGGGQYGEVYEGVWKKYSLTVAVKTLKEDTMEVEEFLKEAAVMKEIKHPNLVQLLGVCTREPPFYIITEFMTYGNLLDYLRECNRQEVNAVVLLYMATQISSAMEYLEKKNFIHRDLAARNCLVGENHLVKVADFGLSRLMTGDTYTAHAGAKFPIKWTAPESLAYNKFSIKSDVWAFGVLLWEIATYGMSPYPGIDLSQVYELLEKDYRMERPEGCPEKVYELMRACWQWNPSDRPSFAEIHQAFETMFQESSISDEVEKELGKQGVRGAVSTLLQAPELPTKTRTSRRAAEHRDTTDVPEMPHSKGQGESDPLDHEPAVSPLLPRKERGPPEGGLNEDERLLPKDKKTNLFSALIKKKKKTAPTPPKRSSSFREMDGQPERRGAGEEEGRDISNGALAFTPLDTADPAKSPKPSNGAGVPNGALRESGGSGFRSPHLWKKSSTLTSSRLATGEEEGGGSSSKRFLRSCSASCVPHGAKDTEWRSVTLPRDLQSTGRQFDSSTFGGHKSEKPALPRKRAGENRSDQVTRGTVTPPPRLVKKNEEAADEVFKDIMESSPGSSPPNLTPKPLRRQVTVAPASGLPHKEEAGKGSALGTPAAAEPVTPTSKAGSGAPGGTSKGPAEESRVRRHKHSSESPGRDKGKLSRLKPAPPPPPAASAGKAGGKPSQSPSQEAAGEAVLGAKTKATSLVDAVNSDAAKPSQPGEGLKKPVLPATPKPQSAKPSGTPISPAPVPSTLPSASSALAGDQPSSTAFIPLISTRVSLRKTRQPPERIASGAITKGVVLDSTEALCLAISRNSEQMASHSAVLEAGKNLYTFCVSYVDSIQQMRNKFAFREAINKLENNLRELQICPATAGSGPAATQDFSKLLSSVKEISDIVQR
T3 sequence (Q16539 with tags, fused parts or gaps DEL261-261): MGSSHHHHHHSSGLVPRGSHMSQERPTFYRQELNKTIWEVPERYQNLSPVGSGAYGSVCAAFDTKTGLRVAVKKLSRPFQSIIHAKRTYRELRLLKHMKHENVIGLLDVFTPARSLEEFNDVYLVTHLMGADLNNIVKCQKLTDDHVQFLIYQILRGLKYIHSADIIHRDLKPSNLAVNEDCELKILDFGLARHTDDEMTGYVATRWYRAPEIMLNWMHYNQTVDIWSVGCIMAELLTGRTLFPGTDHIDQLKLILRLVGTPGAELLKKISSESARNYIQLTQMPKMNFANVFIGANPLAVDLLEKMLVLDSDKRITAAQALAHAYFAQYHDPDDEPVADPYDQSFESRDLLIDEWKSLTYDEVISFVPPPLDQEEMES
T4 sequence (Q16539 with tags, fused parts or gaps): as the sequence (Q16539 with tags, fused parts or gaps) above
p38-alpha kinase, sequence (Q16539 whole entry): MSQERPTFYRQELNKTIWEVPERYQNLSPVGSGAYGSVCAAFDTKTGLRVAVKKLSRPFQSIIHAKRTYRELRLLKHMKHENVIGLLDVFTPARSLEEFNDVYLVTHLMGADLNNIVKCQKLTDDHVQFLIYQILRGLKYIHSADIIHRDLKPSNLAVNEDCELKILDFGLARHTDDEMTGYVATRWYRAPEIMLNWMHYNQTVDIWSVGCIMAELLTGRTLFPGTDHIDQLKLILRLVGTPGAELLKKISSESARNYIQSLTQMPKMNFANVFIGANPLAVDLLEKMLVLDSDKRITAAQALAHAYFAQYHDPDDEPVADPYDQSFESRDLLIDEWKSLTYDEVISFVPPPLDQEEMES
T2 sequence (P15056 with tags, fused parts or gaps V600E): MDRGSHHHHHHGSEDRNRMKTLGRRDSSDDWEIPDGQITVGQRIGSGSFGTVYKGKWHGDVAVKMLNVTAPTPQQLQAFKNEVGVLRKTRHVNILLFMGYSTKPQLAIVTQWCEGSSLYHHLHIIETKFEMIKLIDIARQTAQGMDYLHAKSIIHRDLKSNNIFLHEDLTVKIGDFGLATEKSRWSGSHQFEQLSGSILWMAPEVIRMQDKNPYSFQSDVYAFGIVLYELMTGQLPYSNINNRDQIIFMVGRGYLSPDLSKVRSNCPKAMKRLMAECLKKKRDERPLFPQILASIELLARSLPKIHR

Q: How did the EC50 [1] turn out when `CC(C)(C)c1cc(NC(=O)Nc2cccc(Cl)c2Cl)n(-c2ccc3c(c2)CCNC3)n1` [Example 66, 1-(3-tert-butyl-1-(1,2,3,4-tetrahydroisoquinolin-6-yl)-1H-pyrazol-5-yl)-3-(2,3-dichlorophenyl)urea] was run?
A: 30 nM

Q: What about the “Effect on binding of fluoroprobe PD 166326 to Abl kinase” value [2] of the same molecule?
A: concentration-dependent acceleration of the binding of fluoroprobe PD 166326

Q: What about the ΔTm at 20 µM [3] of the same molecule?
A: 15.8 °C

Q: What about the “ΔTm (° C.) relative to unphosphorylated Abl” value [4] of the same molecule?
A: 3.2 °C

Q: Which EC50 [1] does the source give for `CC(C)(C)c1cc(NC(=O)Nc2cccc(Cl)c2Cl)n(-c2ccc3c(c2)CNCC3)n1` [Example 64, 1-(3-tert-butyl-1-(1,2,3,4-tetrahydroisoquinolin-7-yl)-1H-pyrazol-5-yl)-3-(2,3-dichlorophenyl)urea] here?
A: 43 nM

Q: What about the “ΔTm (° C.) relative to unphosphorylated Abl” value [4] of the same molecule?
A: 2.6 °C

Q: For `CC1(C(=O)O)CC2(C)CC(C)(C1)C(=O)N(Cc1cccc(-n3nc(C(C)(C)C)cc3NC(=O)Nc3cccc4ccccc34)c1)C2=O` (centres unmarked) [Example 11], which Time-dependent [5] is on record?
A: No

Q: Which “Ratio IC50s” value ([6]; doubly phosphorylated vs unphosphorylated p38-alpha, >1.0 = preference for unphosphorylated form) does the source give for `CC(C)(C)c1cc(NC(=O)Nc2cccc3ccccc23)n(-c2ccc(CO)cc2)n1` [Example 72] here?
A: 1.7

Q: What about the IC50 ([6]; ~24 nM enzyme, 1.0 uM SKF-86002, read-out: FP IC50 U-p38-alpha) of the same molecule?
A: 40 nM

Q: What about the IC50 [7] of the same molecule?
A: 67 nM

Q: What about the “ΔTm (° C.) relative to unphosphorylated apo p38” value [8] of the same molecule?
A: 11.3 °C

Q: What about the “ΔTm (° C.) relative to doubly phosphorylated p38” value [9] of the same molecule?
A: 8.1 °C

Q: And the “Competition with ATP” value [10]?
A: non-competitive with ATP

Q: How did the EC50 [1] turn out when `CC(C)(C)c1cc(NC(=O)Nc2cccc(Cl)c2Cl)n(-c2ccc3c(c2)C[C@@H](C(=O)O)NC3)n1` [Example 65, (3S)-6-(3-tert-butyl-5-(3-(2,3-dichlorophenyl)ureido)-1H-pyrazol-1-yl)-1,2,3,4-tetrahydroisoquinoline-3-carboxylic acid] was run?
A: 81 nM
